Results on one compound are retold here after article PMC9933611 (2023).

Test [1] deals with Re-engineered ATP-binding aptamer, 4-nt poly-T linker (DNA, aptamer) ACCTGGGGGAGTATTTTTTGCGGAGGAAGGA
The test is described as follows: fluorescence melting (AF488/BHQ-1). The conditions noted are these: 10 mM Mg2+; 100 mM Tris HCl, pH 6.5; 3 mM ATP, 50 nM aptamer; temperature of 50% ligand release, not a shift.

Test [2] relates to Re-engineered ATP-binding aptamer, 70-nt poly-T linker (DNA, aptamer) ACCTGGGGGAGTATTTTTTTTTTTTTTTTTTTTTTTTTTTTTTTTTTTTTTTTTTTTTTTTTTTTTTTTTTTTTTTTTTTTTTTTGCGGAGGAAGGA
Description: fluorescence melting (AF488/BHQ-1). The conditions noted are these: 10 mM Mg2+; 100 mM Tris HCl, pH 6.5; 3 mM ATP, 50 nM aptamer; temperature of 50% ligand release, not a shift.

For `Nc1ncnc2c1ncn2[C@@H]1O[C@H](COP(=O)(O)OP(=O)(O)OP(=O)(O)O)[C@@H](O)[C@H]1O`, the figures for the T50% in test [1] and in test [2] were 59.0 ± 0.5 °C and 43.2 ± 0.5 °C, respectively.
